Values quoted from earlier work, collected in US20230323509A1, “Weak Acid Lixiviants for Recovery of Alkaline Earth Metals” (LIXIVIA, INC., priority 2020, published 2023).
Where two headings read alike, the source gives them in different places.

[1] = acid listed without dissociation step index

Structure (SMILES)	pKa [1]	pKa (dissociation step (1))	pKa (dissociation step (2))
CCC(=O)C(=O)O [2-oxobutanoic acid]	2.5	–	–
O=C(O)CC(=O)C(=O)O [oxaloacetic acid]	–	2.55	4.37
CCCCC(=O)O [pentanoic acid]	4.83	–	–
O=c1[nH]c(=O)c2[nH]c(=O)[nH]c2[nH]1 [uric acid]	3.89	–	–
O=C(O)CCCC(=O)O [glutaric acid]	–	4.32	5.42
CC(C(=O)O)C(=O)O [methylmalonic acid]	–	3.07	–
CC#CC(=O)O [2-butynoic acid]	2.62	–	–
CC(CC(=O)O)C(=O)O (stereo not shown) [methylsuccinic acid]	–	4.13	5.64
CCOCC(=O)O [ethoxyacetic acid]	3.65	–	–
CC(O)CC(=O)O (stereo not shown) [3-hydoxybutanoic acid]	4.7	–	–
